# Assay results from PubChem BioAssay (NCI).
#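 Method: 48-hour compound exposure of cells in 96-well plates, five concentrations, linear interpolation of endpoints. TGI: concentration producing complete growth inhibition.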
# How the values were obtained:
# Test in all cases: growth of human tumour cells (NCI), 48 h
# [1] = system: NCI-H522 lung
# [2] = system: BT-549 breast
# [3] = system: SF-295 CNS
# [4] = system: HT29 colon
# [5] = system: PC-3 prostate
# [6] = system: CCRF-CEM leukemia
# [7] = system: NCI/ADR-RES ovarian
# [8] = system: RPMI-8226 leukemia
# [9] = system: HCT-116 colon
# [10] = system: SNB-75 CNS
# [11] = system: MDA-N
# [12] = system: SF-539 CNS
# [13] = system: IGROV1 ovarian
# [14] = system: COLO 205 colon
# [15] = system: A549 NSCLC
# [16] = system: OVCAR-8 ovarian
# [17] = system: UACC-62 melanoma
# [18] = system: A498 renal
# [19] = system: SW-620 colon
# [20] = system: SK-MEL-5 melanoma
# [21] = system: HOP-92 NSCLC
# [22] = system: HOP-62 NSCLC
# [23] = system: MALME-3M melanoma
# [24] = system: HL-60(TB) leukemia
# [25] = system: MCF7 breast
# [26] = system: OVCAR-3 ovarian
# [27] = system: MDA-MB-435
# [28] = system: SNB-19 CNS
# [29] = system: UO-31 renal
# [30] = system: RXF 393 renal
# [31] = system: NCI-H23 lung
# [32] = system: U251 CNS
# [33] = system: KM12 colon
# [34] = system: M14 melanoma
# [35] = system: MOLT-4 leukemia
# [36] = system: 786-0 renal
# [37] = system: OVCAR-5 ovarian
# [38] = system: DU-145 prostate
# [39] = system: K-562 leukemia
# [40] = system: SK-MEL-28 melanoma
# [41] = system: MDA-MB-231 breast
# [42] = system: LOX IMVI melanoma
# [43] = system: CAKI-1 renal
# [44] = system: SN12C renal
# [45] = system: SR leukemia
# [46] = system: ACHN renal
# [47] = system: UACC-257 melanoma
# [48] = system: EKVX NSCLC
# [49] = system: NCI-H226 lung
# [50] = system: SK-MEL-2 melanoma
smiles,measurement,setting,value
COc1ccc(C2=Nc3c(nc(OC)[nH]c3=O)NC(c3ccccc3)C2)cc1 (stereo not given),TGI,[1],> 100 µM
same,TGI,[2],> 100 µM
same,TGI,[3],> 100 µM
same,TGI,[4],> 100 µM
same,TGI,[5],> 100 µM
same,TGI,[6],> 100 µM
same,TGI,[7],> 100 µM
same,TGI,[8],91.5 µM
same,TGI,[9],> 100 µM
same,TGI,[10],58.5 µM
same,TGI,[11],64.5 µM
same,TGI,[12],94.1 µM
same,TGI,[13],> 100 µM
same,TGI,[14],50.3 µM
same,TGI,[15],> 100 µM
same,TGI,[16],54.4 µM
same,TGI,[17],> 100 µM
same,TGI,[18],> 100 µM
same,TGI,[19],72.4 µM
same,TGI,[20],33.7 µM
same,TGI,[21],> 100 µM
same,TGI,[22],> 100 µM
same,TGI,[23],> 100 µM
same,TGI,[24],56.9 µM
same,TGI,[25],68.2 µM
same,TGI,[26],> 100 µM
same,TGI,[27],> 100 µM
same,TGI,[28],> 100 µM
same,TGI,[29],> 100 µM
same,TGI,[30],63.9 µM
same,TGI,[31],> 100 µM
same,TGI,[32],65.6 µM
same,TGI,[33],36.3 µM
same,TGI,[34],> 100 µM
same,TGI,[35],> 100 µM
same,TGI,[36],93.6 µM
same,TGI,[37],> 100 µM
same,TGI,[38],> 100 µM
same,TGI,[39],73.1 µM
same,TGI,[40],42.7 µM
same,TGI,[41],53.4 µM
same,TGI,[42],70.3 µM
same,TGI,[43],> 100 µM
same,TGI,[44],62.6 µM
same,TGI,[45],> 100 µM
same,TGI,[46],83.5 µM
same,TGI,[47],> 100 µM
same,TGI,[48],> 100 µM
same,TGI,[49],> 100 µM
same,TGI,[50],> 100 µM
